Test results from publication PMC10112232, “Comparison of Toxicities among Different Bumped Kinase Inhibitor Analogs for Treatment of Cryptosporidiosis” (Antimicrobial Agents and Chemotherapy, 2023).
Where two headings read alike, the source gives them in different places.

Assays:
[1] = target: T1, C. parvum calcium dependent protein kinase 1 (CpCDPK1) (Cryptosporidium parvum, UniProt A3FQ16); parameters: method as in PMID 30830766; settings: read-out: CpCDPK1 IC50; cited from earlier work
T1 sequence (A3FQ16 1-538): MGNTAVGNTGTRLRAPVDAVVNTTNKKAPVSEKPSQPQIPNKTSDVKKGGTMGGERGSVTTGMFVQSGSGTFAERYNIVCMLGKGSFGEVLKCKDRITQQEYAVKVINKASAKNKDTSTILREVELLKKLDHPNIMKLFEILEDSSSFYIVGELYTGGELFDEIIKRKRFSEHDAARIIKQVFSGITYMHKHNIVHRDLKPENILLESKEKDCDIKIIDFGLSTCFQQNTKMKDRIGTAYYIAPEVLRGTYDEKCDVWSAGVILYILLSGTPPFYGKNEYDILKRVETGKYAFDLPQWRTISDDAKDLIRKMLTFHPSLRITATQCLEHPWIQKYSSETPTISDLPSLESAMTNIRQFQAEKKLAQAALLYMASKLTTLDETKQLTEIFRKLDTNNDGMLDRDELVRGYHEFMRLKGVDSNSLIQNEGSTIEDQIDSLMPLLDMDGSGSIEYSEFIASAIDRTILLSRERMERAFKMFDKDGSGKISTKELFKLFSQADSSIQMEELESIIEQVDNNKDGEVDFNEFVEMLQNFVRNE

[2] = target: human tyrosine kinase SRC (HsSRC) (Homo sapiens, UniProt P12931); parameters: method as in PMID 30830766; settings: read-out: HsSR IC50; cited from earlier work
[3] = cited from earlier work; for CO / HR / MAP / PR / QRS / QTcV / SVR / dp/dt@50: dog, IV 0.02 mL/kg/min
[4] = parameters: method as in PMID 30830766; settings: mice; cited from earlier work
[5] = Cardiovascular testing in anesthetized rats; format: in vivo, rat; settings: for HR / MAP / dP/dt@50: rat
From the text: Methods for synthesis of BKIs ([17], [23]), efficacy against Nluc expressing C. parvum in infected adult IFN-γ KO mice ([6], [9]), in vivo mouse GI tract tissue exposure by LC/MS-MS analysis ([18], [28]), PK analysis of mouse plasma and brain tissue BKI concentrations by LC/MS-MS analysis ([29]), in vivo rat and dog cardiotoxicity screen ([30]), efficacy against IOWA-II strain C. parvum in infected neonatal calves ([13]), efficacy against C. hominis in infected piglets ([12]), in vitro inhibition of C. parvum CDPK1 (CpCDPK1) and human tyrosine kinase SRC (HsSRC) activity ([31]), in vitro inhibition of hERG ([32]), Nluc expressing C. parvum in vitro growth inhibition in infected HCT-8 cells ([6]), in vitro cytotoxicity in CRL-8155 and HepG2 cells ([29]), and mouse locomotor activity box ([33], [34]) have all been previously described. Analytes were measured by LC/MS-MS on an Acquity ultra performance liquid chromatography (UPLC) system in tandem with a Xevo TQ-S mass spectrometer (Waters, Milford, MA, USA).

Chain of human tyrosine kinase SRC (HsSRC) (P12931 whole entry): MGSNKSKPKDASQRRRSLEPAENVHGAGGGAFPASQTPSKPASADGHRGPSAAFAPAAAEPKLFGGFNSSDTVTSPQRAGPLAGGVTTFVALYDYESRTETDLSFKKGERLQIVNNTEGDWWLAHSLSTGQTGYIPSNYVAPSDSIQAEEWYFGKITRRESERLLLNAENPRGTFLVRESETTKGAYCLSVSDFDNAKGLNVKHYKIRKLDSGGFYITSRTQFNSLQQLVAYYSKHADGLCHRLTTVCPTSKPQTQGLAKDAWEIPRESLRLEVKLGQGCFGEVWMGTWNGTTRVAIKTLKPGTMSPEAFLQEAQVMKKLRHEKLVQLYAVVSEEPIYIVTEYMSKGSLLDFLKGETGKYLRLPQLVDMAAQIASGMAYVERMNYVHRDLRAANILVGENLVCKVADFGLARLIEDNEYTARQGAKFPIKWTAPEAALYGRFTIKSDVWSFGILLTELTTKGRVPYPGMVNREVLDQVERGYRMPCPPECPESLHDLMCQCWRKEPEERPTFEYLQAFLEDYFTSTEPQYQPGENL

## CCOc1ccc2cc(-c3nn(C(C)(C)CCO)c(N)c3C(N)=O)ccc2c1 [BKI-1770]
[1]
  IC50: 2 nM
[2]
  IC50: > 10000 nM
[3]; anesthetized dogs, 0.02 mL/kg/min, 150 min
  effects on MAP, HR, contractility, SVR, CO, QTcV, QRS, PR vs control: No appreciable effects
[3]; 15 min
  CO: 0%
  HR: 4%
  MAP: 2%
  PR: -3 ms
  QRS: 0 ms
  QTcV: 4 ms
  SVR: 2%
  dp/dt@50: 1%
[3]; 30 min
  CO: 4%
  HR: 5%
  MAP: 2%
  PR: 0 ms
  QRS: 0 ms
  QTcV: 1 ms
  SVR: -1%
  dp/dt@50: 0%
[3]; 45 min
  CO: 3%
  HR: 8%
  MAP: 2%
  PR: -1 ms
  QRS: -1 ms
  QTcV: 1 ms
  SVR: -2%
  dp/dt@50: 1%
[3]; 60 min
  CO: -1%
  HR: 9%
  MAP: 2%
  PR: -1 ms
  QRS: -2 ms
  QTcV: -1 ms
  SVR: 2%
  dp/dt@50: -1%
[3]; 75 min
  CO: -1%
  HR: 9%
  MAP: 0%
  PR: -1 ms
  QRS: -2 ms
  QTcV: -3 ms
  SVR: 1%
  dp/dt@50: -2%
[3]; 90 min
  CO: -9%
  HR: 10%
  MAP: -1%
  PR: 0 ms
  QRS: -2 ms
  QTcV: -2 ms
  SVR: 8%
  dp/dt@50: -6%
[3]; 105 min
  CO: -4%
  HR: 9%
  MAP: -2%
  PR: 0 ms
  QRS: -3 ms
  QTcV: -1 ms
  SVR: 2%
  dp/dt@50: -7%
[3]; 120 min
  CO: -5%
  HR: 10%
  MAP: -2%
  PR: -1 ms
  QRS: -2 ms
  QTcV: 0 ms
  SVR: 4%
  dp/dt@50: -7%
[3]; 135 min
  CO: -8%
  HR: 11%
  MAP: -3%
  PR: -1 ms
  QRS: -1 ms
  QTcV: -2 ms
  SVR: 7%
  dp/dt@50: -7%
[3]; 150 min
  CO: -7%
  HR: 13%
  MAP: -5%
  PR: -2 ms
  QRS: -1 ms
  QTcV: -1 ms
  SVR: 4%
  dp/dt@50: -7%
[3]; dogs
  signs of cardiotoxicity: no signs of cardiotoxicity
[4]
  blood chemistry and histology vs control animals: no apparent abnormalities

## CCOc1ccc2cc(-c3nn(C4CCOCC4)c(N)c3C(N)=O)ccc2n1 [BKI-1841]
[5]; anesthetized rats, 30-minute IV infusions of 3, 10, 30 mg/kg, significant >15%
  effects on MAP, HR, left ventricular contractility vs vehicle: No significant effects
[5]; IV 3 mg/kg
  HR: 5%
  MAP: 1%
  dP/dt@50: 3%
[5]; IV 10 mg/kg
  HR: 3%
  MAP: 3%
  dP/dt@50: 4%
[5]; IV 30 mg/kg
  HR: 0%
  MAP: 2%
  dP/dt@50: 11%
